From patent US20240360139A1, “BLOOD BRAIN BARRIER PENETRATING SELECTIVE INHIBITORS OF ROCK2 PROTEIN KINASES AND USES THEREOF” (GENOSCO Inc., priority 2023, published 2024)
Where a name gives a salt, the structure may show the parent alone.

Columns and labels:
[1] = biological target: T1, Recombinant ROCK1 (amino acids 1-477) (Homo sapiens, UniProt Q13464); test: ROCK inhibition assay, LANCE Ultra TR-FRET (ROCK1); format: biochemical; conditions: 1 mM of ATP
T1 construct: Recombinant ROCK1 (amino acids 1-477)
T1 sequence (Q13464 1-477): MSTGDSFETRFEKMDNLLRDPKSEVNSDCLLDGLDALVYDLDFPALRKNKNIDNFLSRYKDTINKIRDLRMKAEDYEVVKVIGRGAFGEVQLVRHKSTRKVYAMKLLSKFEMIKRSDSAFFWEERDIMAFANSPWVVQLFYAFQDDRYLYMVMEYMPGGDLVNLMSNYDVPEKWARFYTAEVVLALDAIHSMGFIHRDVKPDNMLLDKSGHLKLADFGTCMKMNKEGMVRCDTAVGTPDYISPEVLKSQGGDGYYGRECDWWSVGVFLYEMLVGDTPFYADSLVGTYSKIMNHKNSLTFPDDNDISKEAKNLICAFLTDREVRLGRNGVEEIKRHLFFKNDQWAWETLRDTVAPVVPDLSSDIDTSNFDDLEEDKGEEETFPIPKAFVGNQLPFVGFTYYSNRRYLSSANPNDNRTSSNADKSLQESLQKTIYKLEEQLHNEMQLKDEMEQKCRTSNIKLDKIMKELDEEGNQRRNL
Procedure: (§1) Kinase IC50 was determined through an in vitro assay based on LANCE Ultra TR-FRET (Time-Resolved Fluorescence Resonance Energy Transfer) homogeneous technologies method 5 (Perkin Elmer). Recombinant ROCK1 (amino acids 1-477) and ROCK2 (amino acids 5-554) proteins were purchased from Carna Biosciences and SignalChem. Compound activities were measured by Envision and IC50s were calculated. The assays were performed in white LUMITRAC™ 200 96 well half-area microplates from Greiner Bio-One. The kinase reaction buffer consisted of 50 mM HEPES pH 7.5, 1 mM EGTA, 10 mM MgCl2, 2 mM DTT and 0.01% 10 Tween-20. Kinases were incubated with 50 nM (ULight-CREBtide) substrate in the presence of 1 mM (ROCK1) or 1 mM (ROCK2) of ATP. The kinase reaction was carried out for 1 hour before addition of a stopping buffer to a final of 10 mM EDTA and 0.6 nM of LANCE Ultra Europium anti-phospho-CREB (Ser133) antibody (PerkinElmer TRF0200) in LANCE detection buffer. All assay incubations were performed at room temperature, and the microplates were sealed with polyester film during that time. The reaction was incubated for 1 hour, and the signal was read in Envision in TR-FRET mode (excitation at 320 nm and emission at 615/665 nm).
(§2) As used herein, a way to describe potency of inhibitory activity (nM) is a value of inhibitory activity at 50% (IC50).

[2] = biological target: T2, Recombinant ROCK2 (amino acids 5-554) (Homo sapiens, UniProt O75116); test: ROCK inhibition assay, LANCE Ultra TR-FRET (ROCK2); format: biochemical; conditions: 1 mM of ATP
T2 construct: ROCK2 (amino acids 5-554)
T2 sequence (O75116 5-554): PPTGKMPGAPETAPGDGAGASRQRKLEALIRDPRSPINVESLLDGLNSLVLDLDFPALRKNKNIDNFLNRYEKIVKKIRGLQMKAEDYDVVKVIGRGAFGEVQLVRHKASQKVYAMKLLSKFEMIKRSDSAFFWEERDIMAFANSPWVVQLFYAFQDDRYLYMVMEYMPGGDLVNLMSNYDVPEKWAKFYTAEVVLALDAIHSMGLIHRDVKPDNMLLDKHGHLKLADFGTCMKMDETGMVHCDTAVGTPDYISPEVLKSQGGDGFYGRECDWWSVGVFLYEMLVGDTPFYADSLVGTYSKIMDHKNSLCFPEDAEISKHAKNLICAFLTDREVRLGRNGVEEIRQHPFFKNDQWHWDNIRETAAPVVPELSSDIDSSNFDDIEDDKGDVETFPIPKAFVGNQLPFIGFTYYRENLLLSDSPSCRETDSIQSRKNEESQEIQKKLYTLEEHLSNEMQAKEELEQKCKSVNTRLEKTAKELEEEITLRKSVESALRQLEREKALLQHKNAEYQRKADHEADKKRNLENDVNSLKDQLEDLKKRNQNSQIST
Procedure: as §1, §2

SMILES	IC50 [1]	IC50 [2]
CCN(CC)CCn1cc(C(=O)[C@@H]2COc3ccc(OC)cc3C2)c2ccc(-c3cn[nH]c3Cl)cc21 [Compound 3-21]	0.201 to 0.5 µM	0.021 to 0.2 µM
CCN(C)CCn1cc(C(=O)[C@@H]2COc3ccc(OC)cc3C2)c2ccc(-c3cn[nH]c3Cl)cc21 [Compound 3-28]	> 0.501 µM	0.021 to 0.2 µM
O=C(c1cn(CC2CCN2)c2cc(-c3cn[nH]c3Cl)ccc12)C1COc2ccc(Cl)cc2C1 (stereo not drawn) [Compound 1-31]	> 0.501 µM	0.021 to 0.2 µM
COc1ccc2c(c1)CC(C(=O)c1cn(C[C@H]3CCN3C)c3cc(-c4cn[nH]c4F)ccc13)CO2 (stereo partly drawn) [Compound 1-45]	> 0.501 µM	0.021 to 0.2 µM
CN(C)CCn1cc(C(=O)C2COc3ccc(F)cc3C2)c2ccc(-c3c[nH]nc3Cl)nc21 (stereo not drawn) [Compound 1-10]	> 0.501 µM	0.021 to 0.2 µM
CCN(CC)CCn1cc(C(=O)[C@@H]2COc3ccc(OC)cc3C2)c2ccc(-c3cn[nH]c3Cl)cc21 [Compound 3-20]	0.201 to 0.5 µM	< 0.02 µM
CNCCn1cc(C(=O)C2COc3ccc(F)cc3C2)c2ccc(-c3c[nH]nc3Cl)cc21 (stereo not drawn) [Compound 3-5]	0.201 to 0.5 µM	< 0.02 µM
COc1[nH]ncc1-c1ccc2c(C(=O)C3COc4ccc(Cl)cc4C3)cn(CC3CCCN3C)c2c1 (stereo not drawn) [Compound 1-19]	> 0.501 µM	0.021 to 0.2 µM
NC1(Cn2cc(C(=O)C3COc4ccc(Cl)cc4C3)c3ccc(-c4cn[nH]c4F)cc32)CC1 (stereo not drawn) [Compound 4-5]	< 0.02 µM	< 0.02 µM
CN(C)CCn1cc(C(=O)C2COc3ccc(Cl)cc3C2)c2ccc(-c3c[nH]nc3Cl)nc21 (stereo not drawn) [Compound 1-9]	0.201 to 0.5 µM	0.021 to 0.2 µM
CN(C)CCn1cc(C(=O)C2COc3ccc(F)cc3C2)c2ccc(-c3cn[nH]c3F)cc21 (stereo not drawn) [Compound 1-23]	> 0.501 µM	0.021 to 0.2 µM
CCN1CC[C@@H]1Cn1cc(C(=O)C2COc3ccc(OC)cc3C2)c2ccc(-c3cn[nH]c3OC)cc21 (stereo partly drawn) [Compound 1-56]	> 0.501 µM	0.021 to 0.2 µM
CCN1CC[C@@H]1Cn1cc(C(=O)C2COc3ccc(OC)cc3C2)c2ccc(-c3cn[nH]c3Cl)cc21 (stereo partly drawn) [Compound 1-58]	> 0.501 µM	0.021 to 0.2 µM
COc1[nH]ncc1-c1ccc2c(C(=O)C3COc4ccc(Cl)cc4C3)cn(C[C@@H]3CCCN3C)c2c1 (stereo partly drawn) [Compound 1-29]	0.201 to 0.5 µM	0.021 to 0.2 µM
COc1[nH]ncc1-c1cc2c(cn1)c(C(=O)C1COc3ccc(Cl)cc3C1)cn2CCN(C)C (stereo not drawn) [Compound 1-2, (6-chlorochroman-3-yl)(1-(2-(dimethylamino)ethyl)-6-(5-methoxy-1H-pyrazol-4-yl)-1H-pyrrolo[3,2-c]pyridin-3-yl)methanone dihydrochloride]	> 0.501 µM	0.021 to 0.2 µM
COc1n[nH]cc1-c1ccc2c(C(=O)C3COc4ccc(Cl)cc4C3)cn(C[C@H](C)N)c2c1 (stereo partly drawn) [Compound 2-9]	0.201 to 0.5 µM	< 0.02 µM
C[C@H](N)Cn1cc(C(=O)C2COc3ccc(Cl)cc3C2)c2ccc(-c3cn[nH]c3F)cc21 (stereo partly drawn) [Compound 2-8]	> 0.501 µM	> 0.501 µM
CN(C)C1(Cn2cc(C(=O)C3COc4ccc(Cl)cc4C3)c3ccc(-c4cn[nH]c4Cl)cc32)CC1 (stereo not drawn) [Compound 2-13]	0.021 to 0.2 µM	0.021 to 0.2 µM
CNCCn1cc(C(=O)C2COc3ccc(F)cc3C2)c2ccc(-c3c[nH]nc3Cl)nc21 (stereo not drawn) [Compound 3-3]	> 0.501 µM	0.021 to 0.2 µM
CN1CC[C@@H]1Cn1cc(C(=O)C2COc3ccc(Cl)cc3C2)c2ccc(-c3cn[nH]c3F)cc21 (stereo partly drawn) [Compound 1-57]	> 0.501 µM	0.201 to 0.5 µM
C[C@H](Cn1cc(C(=O)[C@@H]2COc3ccc(Cl)cc3C2)c2ccc(-c3cn[nH]c3F)cc21)N(C)C [Compound 2-17]	0.201 to 0.5 µM	< 0.02 µM
CN1CCCC1Cn1cc(C(=O)C2COc3ccc(Cl)cc3C2)c2ccc(-c3cn[nH]c3F)cc21 (stereo not drawn) [Compound 1-27]	0.201 to 0.5 µM	0.201 to 0.5 µM
CN(C)CCn1cc(C(=O)C2COc3ccc(F)cc3C2)c2cnc(-c3c[nH]nc3Cl)cc21 (stereo not drawn) [Compound 1-12]	> 0.501 µM	0.201 to 0.5 µM
COc1[nH]ncc1-c1cc2c(cn1)c(C(=O)C1COc3ccc(Cl)cc3C1)cn2CCN(C)C (stereo not drawn) [Compound 1-3, (6-chlorochroman-3-yl)(1-(2-(dimethylamino)ethyl)-6-(5-methoxy-1H-pyrazol-4-yl)-1H-pyrrolo[3,2-c]pyridin-3-yl)methanone dimethanesulfonic acid]	> 0.501 µM	0.021 to 0.2 µM
COc1ccc2c(c1)CC(C(=O)c1cn(C[C@H]3CCN3)c3cc(-c4cn[nH]c4F)ccc13)CO2 (stereo partly drawn) [Compound 1-38]	0.201 to 0.5 µM	< 0.02 µM
C[C@@H](Cn1cc(C(=O)C2COc3ccc(Cl)cc3C2)c2ccc(-c3cn[nH]c3Cl)cc21)N(C)C (stereo partly drawn) [Compound 2-12, (6-chlorochroman-3-yl)-[6-(5-chloro-1H-pyrazol-4-yl)-1-[(2S)-2-(dimethylamino)propyl]indol-3-yl]methanone]	> 0.501 µM	< 0.02 µM
COc1ccc2c(c1)CC(C(=O)c1cn(CCN(C)C)c3cc(-c4c[nH]nc4Cl)ncc13)CO2 (stereo not drawn) [Compound 1-14]	> 0.501 µM	0.201 to 0.5 µM

Next, values leading:

IC50 [1]	IC50 [2]	SMILES
> 0.501 µM	0.021 to 0.2 µM	CN(C)CCn1nc(C(=O)C2COc3ccc(Cl)cc3O2)c2ccc(-c3c[nH]nc3Cl)cc21 (stereo not drawn) [Compound 5-61]
> 0.501 µM	< 0.02 µM	COc1n[nH]cc1-c1ccc2c(C(=O)C3COc4ccc(Cl)cc4C3)nn(CCN(C)C)c2c1 (stereo not drawn) [Compound 5-45]
> 0.501 µM	> 0.501 µM	Cc1nocc1-c1ccc2c(C(=O)C3COc4ccc(F)cc4C3)cn(CCN(C)C)c2c1 (stereo not drawn) [Compound 5-26]
0.201 to 0.5 µM	< 0.02 µM	CCN(CCn1cc(C(=O)[C@@H]2COc3ccc(OC)cc3C2)c2ccc(-c3c[nH]nc3Cl)cc21)CC(F)F [Compound 5-13]
> 0.501 µM	0.201 to 0.5 µM	CN(C)CCn1cc(C(=O)C2COc3ccccc3O2)c2ccc(-c3cn[nH]c3)cc21 (stereo not drawn) [Compound 5-2]
> 0.501 µM	0.021 to 0.2 µM	COc1n[nH]cc1-c1ccc2c(C(=O)C3COc4ccc(F)cc4C3)nn(CCN(C)C)c2c1 (stereo not drawn) [Compound 5-51]
> 0.501 µM	0.201 to 0.5 µM	CN(C)CCn1nc(C(=O)C2COc3ccccc3C2)c2ccc(-c3c[nH]nc3C(F)(F)F)cc21 (stereo not drawn) [Compound 5-54]
0.201 to 0.5 µM	< 0.02 µM	CN(C)CCn1nc(C(=O)[C@@H]2COc3ccc(F)cc3C2)c2ccc(-c3c[nH]nc3Cl)cc21 [Compound 5-53]
0.021 to 0.2 µM	0.021 to 0.2 µM	COc1ccc2c(c1)C[C@H](C(=O)c1cn(C[C@H]3CCN3CC(F)(F)F)c3cc(-c4c[nH]nc4Cl)ccc13)CO2 [Compound 5-11]
> 0.501 µM	> 0.501 µM	COc1ccc2c(c1)CC(C(=O)c1nn(CCN(C)C)c3cc(-c4c[nH]nc4Cl)ccc13)CCO2 (stereo not drawn) [Compound 5-65]
0.201 to 0.5 µM	0.201 to 0.5 µM	CN(C)CCn1cc(C(=O)C2COc3ccccc3O2)c2ccc(-c3c[nH]nc3Cl)cc21 (stereo not drawn) [Compound 5-18]
> 0.501 µM	< 0.02 µM	COc1[nH]ncc1-c1ccc2c(C(=O)C3COc4ccc(Cl)cc4C3)cn(CCN(C)C)c2c1 (stereo not drawn) [Compound 5-28]
> 0.501 µM	< 0.02 µM	COc1ccc2c(c1)C[C@H](C(=O)c1cn(CCN(C)C)c3cc(-c4c[nH]nc4Cl)ccc13)CO2 [Compound 5-4]
> 0.501 µM	0.021 to 0.2 µM	COc1n[nH]cc1-c1ccc2c(C(=O)C3COc4ccc(Cl)cc4O3)nn(CCN(C)C)c2c1 (stereo not drawn) [Compound 5-59]
> 0.501 µM	0.201 to 0.5 µM	COc1[nH]ncc1-c1ccc2c(C(=O)[C@H]3COc4ccc(F)cc4C3)cn(CCN(C)C)c2c1 [Compound 5-40]
> 0.501 µM	0.021 to 0.2 µM	COc1ccc2c(c1)C[C@H](C(=O)c1cn(CCN(CCF)CCF)c3cc(-c4c[nH]nc4Cl)ccc13)CO2 [Compound 5-15]
0.021 to 0.2 µM	< 0.02 µM	COc1ccc2c(c1)CC(C(=O)c1nn(CCN(C)C)c3cc(-c4c[nH]nc4Cl)ccc13)CO2 (stereo not drawn) [Compound 5-50]
> 0.501 µM	< 0.02 µM	COc1ccc2c(c1)C[C@@H](C(=O)c1cn(CCN(C)C)c3cc(-c4c[nH]nc4Cl)ccc13)CO2 [Compound 5-8]
0.201 to 0.5 µM	< 0.02 µM	COc1ccc2c(c1)C[C@H](C(=O)c1cn(C[C@H]3CCN3CC(F)F)c3cc(-c4c[nH]nc4Cl)ccc13)CO2 [Compound 5-10]
> 0.501 µM	0.021 to 0.2 µM	CCN(CCn1cc(C(=O)[C@@H]2COc3ccc(OC)cc3C2)c2ccc(-c3c[nH]nc3Cl)cc21)CC(F)(F)F [Compound 5-14]
> 0.501 µM	0.201 to 0.5 µM	COc1[nH]ncc1-c1ccc2c(C(=O)C3COc4ccc(Cl)cc4O3)cn(CCN(C)C)c2c1 (stereo not drawn) [Compound 5-42]
> 0.501 µM	0.021 to 0.2 µM	CN(C)CCn1cc(C(=O)C2COc3ccc(F)cc3C2)c2ccc(-c3c[nH]nc3Cl)cc21 (stereo not drawn) [Compound 5-19]
> 0.501 µM	–	COc1[nH]ncc1-c1ccc2c(C(=O)[C@@H]3COc4ccc(F)cc4C3)cn(CCN(C)C)c2c1 [Compound 5-39]
